According to US20130324513A1, “METHOD FOR TREATING ESOPHAGEAL CANCER” (Niiki Pharma Acquisition Corp. 2, priority 2010, published 2013):
Where two headings read alike, the source gives them in different places.

Assays:
[1] = tested on: human esophageal carcinoma cell line OE33; assay: MTT Cell Proliferation Assay in OE33; type: cell-based
Method: To test the activity of tris(8-quinolinolato)gallium(III), ATCC's MTT Cell Proliferation Assay® was performed using human esophageal carcinoma cell line OE33. Stock cultures were allowed to grow to 70-80% confluence for this study. The anti-proliferative activity of tris(8-quinolinolato)gallium(III) against the indicated cell line was evaluated in vitro using the ATCC's MTT Cell Proliferation Assay (Catalog No. 30-1010K). OE33 plates were seeded with 1,200 cells/well, and the cells were grown in RPMI1640 medium containing 1% (1M HEPES), 1% sodium pyruvate, 10% FBS and 1% penicillin/strep/glutamine. Cultures were maintained in a 37° C. humidified 5% CO2/95% air atmosphere. The cells were treated with tris(8-quinolinolato)gallium(III) at 1,000 μM, or a series of 4×dilutions thereof (250 μM, 62.5 μM, etc.). […] The plates were left overnight at room temperature in the dark and was read on a plate reader using SoftMax® Pro (version 5.2, Molecular Devices).
The absorbance data was analyzed as follows: Absorbance values were converted to Percent of Control and plotted against test agent concentrations for IC50 calculations using SoftMax® Pro (version 5.2, Molecular Devices). […] Percent of Control values were calculated by dividing the absorbance values for each test well by the No Drug Control average (column 11 values; cells+vehicle control) and multiplying by 100. […]

[2] = tested on: human gastric cancer cell line NCI-N87; assay: MTT Cell Proliferation Assay in NCI-N87; type: cell-based
Method: To test the activities of tris(8-quinolinolato)gallium(III), ATCC's MTT Cell Proliferation Assay® was performed using human gastric cancer cell line NCI-N87 (differentiated carcinoma). Stock cultures were allowed to grow to 70-80% confluence for this study. The anti-proliferative activity of tris(8-quinolinolato)gallium(III), against the indicated cell line was evaluated in vitro using the ATCC's MTT Cell Proliferation Assay (Catalog No. 30-1010K). NCI-N87 was grown using RPMI1640 (Cell Gro 10-040-CV), with 1% of 1M HEPES, 1% sodium pyruvate, 1% of 45% glucose solution, 10% of heat-inactivated FBS and 1% of pen/strep/glutamine. NCI-N87 cell plates were seeded with 20E+03 cells/well and treated with tris(8-quinolinolato)gallium(III) at 1,000 μM, or a series of 4×dilutions thereof (250 μM, 62.5 μM, etc.). 100 μl of medium was removed from each well at 72 hours post-treatment and 10 μl MTT reagent was added to each well. The plates were incubated plate at 37° C. for 4 hours and then 100 μl of detergent was added. The plates were left overnight at room temperature in the dark and was read on a plate reader using SoftMax® Pro (version 5.2, Molecular Devices).
The absorbance data was analyzed as follows: Absorbance values were converted to Percent of Control and plotted against test agent concentrations for IC50 calculations using SoftMax® Pro (version 5.2, Molecular Devices). The plate blank signal average was subtracted from all wells prior to calculating the Percent of Control. Percent of Control values were calculated by dividing the absorbance values for each test well by the No Drug Control average (column 11 values; cells+vehicle control) and multiplying by 100. Plots of Compound Concentration versus Percent of Control were analyzed using the 4-parameter equation to obtain IC50 values and other parameters that describe the sigmoidal dose response curve.
The IC50 value for the test agents was estimated by curve-fitting the data using the following four parameter-logistic equation:
wherein “Top” is the maximal % of control absorbance (100%) (Value “A” in FIG. 1, 88.3), “Bottom” is the minimal % of control absorbance at the highest agent concentration (down to zero) (Value “D” in FIG. 1, 20.8), Y is the Percent of Control absorbance, X is the test agent Concentration, IC50 is the concentration of agent that inhibits cell growth by 50% compared to the control cells (Value “C” in FIG. 1, 8.42e+03), n is the slope of the curve (Value “B” in FIG. 1, 2.31).

[3] = NCI-N87, four parameter-logistic fit

[Ga+3].[O-]c1cccc2cccnc12.[O-]c1cccc2cccnc12.[O-]c1cccc2cccnc12 [tris(8-quinolinolato)gallium(III)]
growth inhibition in MTT assay (FIG. 2) ([1]; OE33): dose-dependent growth inhibition | IC50 ([1]; OE33 cell line, MTT, 72 hours post-treatment, read-out: IC50 (concentration of agent that inhibits cell growth by 50% compared to the control cells)): 3.06 µM | growth inhibition in MTT assay (FIG. 1) ([2]; NCI-N87): dose-dependent growth inhibition | Bottom, minimal % of control absorbance at the highest agent concentration (Value "D" in FIG. 1) [2, 3]: 20.8 % of control | Top, maximal % of control absorbance (Value "A" in FIG. 1) [2, 3]: 88.3 % of control | IC50 ([2]; NCI-N87, four parameter-logistic fit, X axis of FIG. 1 in nM, read-out: IC50 (Value "C" in FIG. 1)): 8420 nM | IC50 ([2]; NCI-N87 cell line, MTT, 72 hours post-treatment, read-out: IC50 (concentration of agent that inhibits cell growth by 50% compared to the control cells)): 8420 nM
